Laboratory results published in ChEMBL document CHEMBL5321216, “Discovery of bipyridine amide derivatives targeting pRXRα-PLK1 interaction for anticancer therapy” (Eur J Med Chem, 2023).
Active and inactive are the calls of the source. The rule behind the calls is not given here.

Legend:
[1] = molecular target: T1, Retinoic acid receptor RXR-alpha (Homo sapiens, UniProt P19793); assay: Binding affinity to RXRalpha LBD (unknown origin) assessed as dissociation constant by fluorescence quenching analysis
T1 sequence (P19793 whole entry): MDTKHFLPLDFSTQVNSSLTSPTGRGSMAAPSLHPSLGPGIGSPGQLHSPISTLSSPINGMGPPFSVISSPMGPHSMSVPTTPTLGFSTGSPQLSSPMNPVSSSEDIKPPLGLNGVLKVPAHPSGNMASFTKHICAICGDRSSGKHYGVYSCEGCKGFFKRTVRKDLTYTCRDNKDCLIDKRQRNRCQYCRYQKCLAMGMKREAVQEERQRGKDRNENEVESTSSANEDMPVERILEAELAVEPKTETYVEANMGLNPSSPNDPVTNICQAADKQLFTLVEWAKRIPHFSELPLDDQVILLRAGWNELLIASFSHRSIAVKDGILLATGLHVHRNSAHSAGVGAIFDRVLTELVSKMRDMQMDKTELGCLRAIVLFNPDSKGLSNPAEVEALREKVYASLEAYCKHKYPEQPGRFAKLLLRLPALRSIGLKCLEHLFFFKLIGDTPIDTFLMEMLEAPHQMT

MDA-MB-231 [2] = assay: Antiproliferative activity against human MDA-MB-231 cells assessed as inhibition of cell proliferation incubated for 72 hrs by MTT assay; format: functional, cell-based; conditions: MDA-MB-231, 72 h
[3] = Selectivity index, ratio of IC50 for human HCC1937 cells to IC50 for human MDA-MB-231 cells; format: functional
[4] = Tmax in Sprague-Dawley rat at 25 mg/kg, ip measured for 48 hrs by LC-MS/MS analysis; format: ADME, organism-based; conditions: in vivo
A549 [5] = assay: Induction of cell cycle arrest in wild type human A549 cells assessed as accumulation of cells at G2 phase at 125 nM incubated for 12 hrs by DAPI staining based flow cytometry analysis (reference value: 21.99 %); format: functional
MDA-MB-231 [6] = assay: Antitumor activity against human MDA-MB-231 cells xenografted in BALB/c nude mouse assessed as reduction in Ki67 protein expression at 25 mg/kg/day, ip administered for 15 days by immunohistochemical analysis; format: functional, organism-based; conditions: time 15.0 day
A549 [7] = assay: Induction of apoptosis in human A549 cells assessed as live cells at 62.5 nM incubated for 24 hrs by annexin V-FITC/PI staining based flow cytometry analysis (reference value: 93.2%); format: functional
A549 [8] = assay: Induction of apoptosis in human A549 cells assessed as live cells at 250 nM incubated for 24 hrs by annexin V-FITC/PI staining based flow cytometry analysis (reference value: 93.2%); format: functional
[9] = molecular target: Nuclear receptor subfamily 4immunitygroup A member 1 (Homo sapiens) (UniProt P22736); assay: Antagonist activity at Nur77 (unknown origin) transfected in human HeLa cells at 31.25 uM incubated for 24 hrs by dual luciferase reporter assay; format: cell-based
MDA-MB-231 [10] = assay: Induction of mitotic arrest in human MDA-MB-231 cells assessed as disordered spindle formation at 62.5 nM incubated for 12 hrs by alpha-tubulin/DAPI staining based confocal microscopic analysis; format: functional, cell-based
[11] = Toxicity in BALB/c mouse xenografted with human MDA-MB-231 cells assessed as spleen damage at 25 mg/kg/day, ip administered for 15 days by H and E staining based analysis; format: organism-based; conditions: in vivo, 360 h, time 15 day
A549 [12] = assay: Antiproliferative activity against wild type human A549 cells assessed as inhibition of cell growth incubated for 72 hrs by MTT assay; format: functional, cell-based; conditions: A549, 72 h
[13] = Cytotoxicity against human HaCaT cells assessed as inhibition of cell proliferation incubated for 72 hrs by MTT assay; format: toxicity, cell-based
A549 [14] = assay: Induction of apoptosis in human A549 cells assessed as live cells at 125 nM incubated for 24 hrs by annexin V-FITC/PI staining based flow cytometry analysis (reference value: 93.2%); format: functional
A549 [15] = assay: Induction of apoptosis in human A549 cells assessed as early apoptotic cells at 62.5 nM incubated for 24 hrs by annexin V-FITC/PI staining based flow cytometry analysis (reference value: 0.78%); format: functional
A549 [16] = assay: Induction of apoptosis in human A549 cells assessed as dead cells at 31.25 nM incubated for 24 hrs by annexin V-FITC/PI staining based flow cytometry analysis (reference value: 0.75%); format: functional
MDA-MB-231 [17] = assay: Induction of apoptosis in human MDA-MB-231 cells assessed as early apoptotic cells at 250 nM incubated for 24 hrs by annexin V-FITC/PI staining based flow cytometry analysis (reference value: 2.03%); format: functional
A549 [18] = assay: Induction of cell cycle arrest in human A549 cells assessed as accumulation of cells at G1 phase at 15.625 nM incubated for 12 hrs by flow cytometry analysis (reference value: 59.57%); format: functional; conditions: 0.01562 µM
MDA-MB-231 [19] = assay: Induction of apoptosis in human MDA-MB-231 cells assessed as dead cells at 31.25 nM incubated for 24 hrs by annexin V-FITC/PI staining based flow cytometry analysis (reference value: 0.69%); format: functional
HepG2 = assay: Antiproliferative activity against human HepG2 cells assessed as cell viability rate at 5 uM incubated for 72 hrs by MTT assay relative to control; format: functional
[20] = Selectivity index, ratio of IC50 for human MCF7 cells to IC50 for human MDA-MB-231 cells; format: toxicity
HeLa = assay: Inhibition of MYC tagged pRXRalpha-FLAG tagged PLK1 (unknown origin) protein-protein interaction transfected in human HeLa cells at 500 nM incubated for 3 hrs by co-immunoprecipitation assay; format: cell-based
A549 [21] = assay: Induction of cell cycle arrest in human A549 cells assessed as accumulation of cells at G2 phase at 15.625 nM incubated for 12 hrs by flow cytometry analysis (reference value: 8.62%); format: functional; conditions: 0.01562 µM
MDA-MB-231 [22] = assay: Induction of cell cycle arrest in human MDA-MB-231 cells assessed as accumulation of cells at S phase at 15.625 nM incubated for 12 hrs by flow cytometry analysis (reference value: 40.89%); format: functional; conditions: 0.01562 µM
MDA-MB-231 [23] = assay: Antiproliferative activity against human MDA-MB-231 cells assessed as cell viability rate at 5 uM incubated for 72 hrs by MTT assay relative to control; format: functional
[24] = Apparent volume of distribution during terminal phase in Sprague-Dawley rat at 25 mg/kg, ip measured for 48 hrs by LC-MS/MS analysis; format: ADME, organism-based; conditions: in vivo, read-out: Vz/F
[25] = Cmax in Sprague-Dawley rat at 25 mg/kg, ip measured for 48 hrs by LC-MS/MS analysis; format: ADME, organism-based; parameters: time 48 hrs, dose 25 mg/kg, route ip; conditions: in vivo
[26] = Selectivity index, ratio of IC50 for human NCI-H460 cells to IC50 for human MDA-MB-231 cells; format: functional
MDA-MB-231 [27] = assay: Induction of cell cycle arrest in human MDA-MB-231 cells assessed as accumulation of cells at S phase at 31.25 nM incubated for 12 hrs by flow cytometry analysis (reference value: 40.89%); format: functional
A549 [28] = assay: Induction of apoptosis in human A549 cells assessed as dead cells at 125 nM incubated for 24 hrs by annexin V-FITC/PI staining based flow cytometry analysis (reference value: 0.75%); format: functional

Chain of Nuclear receptor subfamily 4immunitygroup A member 1 (Homo sapiens) (P22736 whole entry): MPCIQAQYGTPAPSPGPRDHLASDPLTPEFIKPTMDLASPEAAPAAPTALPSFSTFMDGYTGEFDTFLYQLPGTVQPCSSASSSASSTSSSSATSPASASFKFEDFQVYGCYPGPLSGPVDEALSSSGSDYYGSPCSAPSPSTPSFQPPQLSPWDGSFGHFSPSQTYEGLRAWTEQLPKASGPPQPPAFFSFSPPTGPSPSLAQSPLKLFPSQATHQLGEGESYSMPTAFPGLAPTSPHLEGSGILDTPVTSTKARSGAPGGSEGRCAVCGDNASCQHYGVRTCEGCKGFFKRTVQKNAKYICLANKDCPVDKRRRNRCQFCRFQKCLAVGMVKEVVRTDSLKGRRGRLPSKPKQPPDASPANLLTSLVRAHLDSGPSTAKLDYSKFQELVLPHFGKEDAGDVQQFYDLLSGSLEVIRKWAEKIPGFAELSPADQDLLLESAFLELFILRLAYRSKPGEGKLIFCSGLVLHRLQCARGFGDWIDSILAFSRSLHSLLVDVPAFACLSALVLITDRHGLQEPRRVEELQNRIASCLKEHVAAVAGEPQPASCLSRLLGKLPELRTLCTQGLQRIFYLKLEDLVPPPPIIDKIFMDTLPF

In the case of O=C(/C=C/c1ccccc1)Nc1cc(-c2ccnc(N3CCC(CO)CC3)c2)ccn1, the Kd [1] is reported as 147 nM, the IC50 (MDA-MB-231 [2]) is reported as 16 nM and the “Ratio IC50” value [3] is reported as 35.06. For the same compound, the Tmax [4] was 8.4 min, the Activity (A549 [5]) was 79.66% and the Activity (MDA-MB-231 [6]) was “Active”. For the same compound, the Activity (A549 [7]) was 67.7%, the Activity (A549 [8]) was 44.9% and the Activity [9] was “inactive”. The Activity (MDA-MB-231 [10]) was “Active”, the Activity [11] was “Non-Toxic” and the IC50 (A549 [12]) was 196 nM. It also gave an IC50 at 72 h [13] of 51 nM, an Activity (A549 [14]) of 52% and an Activity (A549 [15]) of 11.4%. For the same compound, the Activity (A549 [16]) was 3.98%, the Activity (MDA-MB-231 [17]) was 20.2% and the Activity (A549 [18]) was 59.06%. For the same compound, the Activity (MDA-MB-231 [19]) was 0.93%, the Activity (HepG2) was 42.38% and the “Ratio IC50” value [20] was 146.5. The inhibition (HeLa) was “Active”, the Activity (A549 [21]) was 8.95% and the Activity (MDA-MB-231 [22]) was 41.47%. The Activity (MDA-MB-231 [23]) was 31.72%, the Vd/F [24] was 5.15 L/kg and the Cmax [25] was 8080 ng/mL. The “Ratio IC50” value [26] was 15.81, the Activity (MDA-MB-231 [27]) was 30.34% and the Activity (A549 [28]) was 2.31%.
